{"source": "patent US10722501B2", "about": "(BAYER AKTIENGESELLSCHAFT, priority 2016, dated 2020)"}
{"molecular_target": "T1, recombinant full-length human prolyl endopeptidase (PREP) (Homo sapiens, UniProt P48147)", "T1 construct": "To recombinant full-length human prolyl endopeptidase (PREP, R&D-Systems, 4308-SE); purchased R&D-Systems 4308-SE", "T1 sequence (P48147 1-710)": "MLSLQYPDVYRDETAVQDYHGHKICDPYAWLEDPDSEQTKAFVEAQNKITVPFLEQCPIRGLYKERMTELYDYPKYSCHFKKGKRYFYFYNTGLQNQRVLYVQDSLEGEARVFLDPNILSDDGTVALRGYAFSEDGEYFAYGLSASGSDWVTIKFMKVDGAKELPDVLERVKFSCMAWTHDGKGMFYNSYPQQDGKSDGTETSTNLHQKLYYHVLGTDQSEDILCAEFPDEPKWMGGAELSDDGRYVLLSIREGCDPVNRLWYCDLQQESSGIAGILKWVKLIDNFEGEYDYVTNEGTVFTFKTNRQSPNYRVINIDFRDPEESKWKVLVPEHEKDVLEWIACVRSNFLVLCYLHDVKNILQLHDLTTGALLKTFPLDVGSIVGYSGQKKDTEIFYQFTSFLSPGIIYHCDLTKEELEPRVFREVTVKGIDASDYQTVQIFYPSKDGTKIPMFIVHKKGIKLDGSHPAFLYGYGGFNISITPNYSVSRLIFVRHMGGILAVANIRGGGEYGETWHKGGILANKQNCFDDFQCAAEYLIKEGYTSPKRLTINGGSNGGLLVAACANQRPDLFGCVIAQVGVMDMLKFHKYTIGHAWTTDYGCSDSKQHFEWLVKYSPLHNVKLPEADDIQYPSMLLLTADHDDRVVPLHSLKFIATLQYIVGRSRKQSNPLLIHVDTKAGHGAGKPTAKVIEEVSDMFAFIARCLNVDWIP", "test": "Biochemical human prolyl endopeptidase (PREP) assay with fluorescently labelled substrate", "details": "substrate Z-Gly-Pro-AMC 50 μM, 32° C., 60 min; some as mean values from multiple independent determinations", "in_short": "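Initial rates of fluorescence increase from 50 μM Z-Gly-Pro-AMC cleavage (ex 360/em 465 nm, 60 min, 32° C) give percent PREP activity versus no-compound control, and IC50 is interpolated. Enzyme used at 0.4 nM (final, example) in Tris pH 7.5 with EDTA, GSH, BSA and Brij-35; compounds span 1 nM to 30 μM.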", "units": {"IC50": "nM"}}
{"compound": "O=C([C@@H]1CCCc2nn(Cc3nnc(C(F)(F)F)o3)c(=O)n21)N1CCC(F)(F)C1", "note": "[Example 541, (5S)-5-[(3,3-Difluoropyrrolidin-1-yl)carbonyl]-2-{[5-(trifluoromethyl)-1,3,4-oxadiazol-2-yl]methyl}-5,6,7,8-tetrahydro[1,2,4]triazolo[4,3-a]pyridin-3(2H)-one]", "IC50": 63}
{"compound": "O=C(C1CC(C(F)(F)F)Cc2nn(Cc3ccc(Cl)nc3)c(=O)n21)N1CC(F)C1", "note": "(single isomer, unassigned) [Example 240, (5RS,7RS)-2-[(6-Chloropyridin-3-yl)methyl]-5-[(3-fluoroazetidin-1-yl)carbonyl]-7-(trifluoromethyl)-5,6,7,8-tetrahydro[1,2,4]triazolo[4,3-a]pyridin-3(2H)-one]", "IC50": 4.2}
{"compound": "Cc1ccc(Cn2nc3n(c2=O)C(C(=O)N2CCC4(C2)CC4(F)F)CCC3)cc1", "note": "(single isomer, unassigned) [Example 129, (5RS)-{[(3RS)-1,1-Difluoro-5-azaspiro[2.4]hept-5-yl]carbonyl}-2-(4-methylbenzyl)-5,6,7,8-tetrahydro[1,2,4]triazolo[4,3-a]pyridin-3(2H)-one]", "IC50": 10}
{"compound": "O=C(C1CC(C(F)(F)F)Cc2nn(Cc3ccc(Cl)nc3)c(=O)n21)N1CC[C@@H](F)C1", "note": "(mixture of isomers) [Example 245, (5RS,7RS)-2-[(6-Chloropyridin-3-yl)methyl]-5-{[(3R)-3-fluoropyrrolidin-1-yl]carbonyl}-7-(trifluoromethyl)-5,6,7,8-tetrahydro[1,2,4]triazolo[4,3-a]pyridin-3(2H)-one]", "IC50": 6.9}
{"compound": "O=C(C1CCCc2nn(Cc3ccc(Cl)c(Cl)c3)c(=O)n21)N1CCCC1", "note": "(racemic) [Example 39, (5RS)-2-(3,4-Dichlorobenzyl)-5-(pyrrolidin-1-ylcarbonyl)-5,6,7,8-tetrahydro[1,2,4]triazolo[4,3-a]pyridin-3(2H)-one]", "IC50": 0.55}
{"compound": "O=C([C@@H]1CCCc2nn(Cc3ccc(F)c(F)c3)c(=O)n21)N1CCC(F)(F)C1", "note": "[Example 468, (5S)-2-(3,4-Difluorobenzyl)-5-[(3,3-difluoropyrrolidin-1-yl)carbonyl]-5,6,7,8-tetrahydro[1,2,4]triazolo[4,3-a]pyridin-3(2H)-one]", "IC50": 1.4}
{"compound": "O=C(C1CC(C(F)(F)F)Cc2nn(Cc3cncc(Cl)c3)c(=O)n21)N1C[C@@H](F)[C@@H](F)C1", "note": "(single isomer, unassigned) [Example 268]", "IC50": 23}
{"compound": "O=C([C@@H]1CCCc2nn(Cc3ccc(C(F)(F)F)cn3)c(=O)n21)N1CCCC1", "note": "[Example 531, (5S)-5-(Pyrrolidin-1-ylcarbonyl)-2-{[5-(trifluoromethyl)pyridin-2-yl]methyl}-5,6,7,8-tetrahydro[1,2,4]triazolo[4,3-a]pyridin-3(2H)-one]", "IC50": 3}
{"compound": "O=C(C1C(C(F)(F)F)CCc2nn(Cc3ccc(Cl)cn3)c(=O)n21)N1C[C@@H](F)[C@@H](F)C1", "note": "(single isomer, unassigned) [Example 301]", "IC50": 19.5}
{"compound": "O=C([C@@H]1CCCc2nn(Cc3ccc(Cl)cn3)c(=O)n21)N1CCC(F)(F)C1", "note": "[Example 377, (5S)-2-[(5-Chloropyridin-2-yl)methyl]-5-[(3,3-difluoropyrrolidin-1-yl)carbonyl]-5,6,7,8-tetrahydro[1,2,4]triazolo[4,3-a]pyridin-3(2H)-one]", "IC50": 6.86}
{"compound": "CC1CCC(C(=O)N2CCC(F)(F)C2)n2c1nn(Cc1ccc(C(F)(F)F)nc1)c2=O", "note": "(racemic) [Example 330, (5RS,8RS)-5-[(3,3-Difluoropyrrolidin-1-yl)carbonyl]-8-methyl-2-{[6-(trifluoromethyl)pyridin-3-yl]methyl}-5,6,7,8-tetrahydro[1,2,4]triazolo[4,3-a]pyridin-3(2H)-one]", "IC50": 4.9}
{"compound": "O=C([C@@H]1CCCc2nn(Cc3ccc(C(F)(F)F)nc3)c(=O)n21)N1CC(F)C1", "note": "[Example 429, (5S)-5-[(3-Fluoroazetidin-1-yl)carbonyl]-2-{[6-(trifluoromethyl)pyridin-3-yl]methyl}-5,6,7,8-tetrahydro[1,2,4]triazolo[4,3-a]pyridin-3(2H)-one]", "IC50": 3.7}
{"compound": "O=C([C@@H]1CCCc2nn(Cc3cccc(C(F)(F)F)c3)c(=O)n21)N1CC[C@H](F)C1", "note": "[Example 444, (5S)-5-{[(3S)-3-Fluoropyrrolidin-1-yl]carbonyl}-2-[3-(trifluoromethyl)benzyl]-5,6,7,8-tetrahydro[1,2,4]triazolo[4,3-a]pyridin-3(2H)-one]", "IC50": 0.19}
{"compound": "O=C(C1CC(C(F)(F)F)Cc2nn(Cc3ccc(Cl)nc3)c(=O)n21)N1CCCC1", "note": "(single isomer, unassigned) [Example 227, (5RS,7RS)-2-[(6-Chloropyridin-3-yl)methyl]-5-(pyrrolidin-1-ylcarbonyl)-7-(trifluoromethyl)-5,6,7,8-tetrahydro[1,2,4]triazolo[4,3-a]pyridin-3(2H)-one]", "IC50": 24}
{"compound": "O=C(C1CC(C(F)(F)F)Cc2nn(Cc3ncc(C(F)(F)F)cc3Cl)c(=O)n21)N1CC[C@H](F)C1", "note": "(single isomer, unassigned) [Example 563]", "IC50": 0.33}
{"compound": "O=C([C@@H]1CCCc2nn(Cc3cnc(C(F)(F)F)c(Cl)c3)c(=O)n21)N1CCCC1", "note": "[Example 545, (5S)-2-{[5-Chloro-6-(trifluoromethyl)pyridin-3-yl]methyl}-5-(pyrrolidin-1-ylcarbonyl)-5,6,7,8-tetrahydro[1,2,4]triazolo[4,3-a]pyridin-3(2H)-one]", "IC50": 0.67}
{"compound": "O=C(C1CC(C(F)(F)F)Cc2nn(Cc3ccc(Cl)nc3)c(=O)n21)N1CCC(F)(F)C1", "note": "(single isomer, unassigned) [Example 231, (5RS,7RS)-2-[(6-Chloropyridin-3-yl)methyl]-5-[(3,3-difluoropyrrolidin-1-yl)carbonyl]-7-(trifluoromethyl)-5,6,7,8-tetrahydro[1,2,4]triazolo[4,3-a]pyridin-3(2H)-one]", "IC50": 48}
{"compound": "O=C([C@@H]1CCCc2nn(Cc3nccc(C(F)(F)F)c3Cl)c(=O)n21)N1CC(F)C1", "note": "[Example 389, (5S)-2-{[3-Chloro-4-(trifluoromethyl)pyridin-2-yl]methyl}-5-[(3-fluoroazetidin-1-yl)carbonyl]-5,6,7,8-tetrahydro[1,2,4]triazolo[4,3-a]pyridin-3(2H)-one]", "IC50": 1.45}
{"compound": "O=C(C1CCc2nn(Cc3ccc(C(F)(F)F)nc3)c(=O)n21)N1C[C@@H](F)[C@@H](F)C1", "note": "(mixture of isomers) [Example 173, (5RS)-5-{[(3R,4S)-3,4-Difluoropyrrolidin-1-yl]carbonyl}-2-{[6-(trifluoromethyl)pyridin-3-yl]methyl}-2,5,6,7-tetrahydro-3H-pyrrolo[2,1-c][1,2,4]triazol-3-one]", "IC50": 5.85}
{"compound": "O=C(C1CCCc2nn(Cc3ccc(C(F)(F)F)nc3)c(=O)n21)N1CC(F)C1", "note": "(racemic) [Example 96, (5RS)-5-[(3-Fluoroazetidin-1-yl)carbonyl]-2-{[6-(trifluoromethyl)pyridin-3-yl]methyl}-5,6,7,8-tetrahydro[1,2,4]triazolo[4,3-a]pyridin-3(2H)-one]", "IC50": 7.4}
{"compound": "COc1ccc(Cn2nc3n(c2=O)[C@H](C(=O)N2C[C@@H](F)[C@@H](F)C2)CCC3)nc1", "note": "[Example 380, (5S)-5-{[(3R,4S)-3,4-Difluoropyrrolidin-1-yl]carbonyl}-2-[(5-methoxypyridin-2-yl)methyl]-5,6,7,8-tetrahydro[1,2,4]triazolo[4,3-a]pyridin-3(2H)-one]", "IC50": 2.1}
{"compound": "COc1ccc(C2(Cn3nc4n(c3=O)[C@H](C(=O)N3CCC(F)(F)C3)CCC4)CC2)cc1", "note": "[Example 529, (5S)-5-[(3,3-Difluoropyrrolidin-1-yl)carbonyl]-2-{[1-(4-methoxyphenyl)cyclopropyl]methyl}-5,6,7,8-tetrahydro[1,2,4]triazolo[4,3-a]pyridin-3(2H)-one]", "IC50": 0.96}
{"compound": "O=C([C@@H]1CCCc2nn(Cc3ncc(F)cc3F)c(=O)n21)N1CCC(F)(F)C1", "note": "[Example 412, (5S)-2-[(3,5-Difluoropyridin-2-yl)methyl]-5-[(3,3-difluoropyrrolidin-1-yl)carbonyl]-5,6,7,8-tetrahydro[1,2,4]triazolo[4,3-a]pyridin-3(2H)-one]", "IC50": 3}
{"compound": "O=C([C@@H]1CCCc2nn(Cc3ccc(Br)cc3F)c(=O)n21)N1C[C@@H](F)[C@@H](F)C1", "note": "[Example 215, (5S)-2-(4-Bromo-2-fluorobenzyl)-5-{[(3R,4S)-3,4-difluoropyrrolidin-1-yl]carbonyl}-5,6,7,8-tetrahydro[1,2,4]triazolo[4,3-a]pyridin-3(2H)-one]", "IC50": 0.53}
{"compound": "N#C[C@@H]1CCCN1C(=O)[C@@H]1CCCc2nn(Cc3ncc(Cl)cc3F)c(=O)n21", "note": "[Example 514, (2S)-1-({(5S)-2-[(5-Chloro-3-fluoropyridin-2-yl)methyl]-3-oxo-2,3,5,6,7,8-hexahydro[1,2,4]triazolo[4,3-a]pyridin-5-yl}carbonyl)pyrrolidine-2-carbonitrile]", "IC50": 0.061}
